The test system of experiment [1] is MAP strain Dominic (ATCC 43545). The experiment can be described thus: radiometric 14CO2 BACTEC 460 growth culture, MAP Dominic. Type of experiment: cell-based, Mycobacterium avium subspecies paratuberculosis.
For a further experiment, the system named is MAP strain UCF-4. The experiment can be described thus: radiometric 14CO2 BACTEC 460 growth culture, MAP UCF-4. The experiment is classed as cell-based, Mycobacterium avium subspecies paratuberculosis.
The subject of another experiment is MAP ATCC 19698. In words: radiometric 14CO2 BACTEC 460 growth culture, MAP 19698. The experiment is classed as cell-based, Mycobacterium avium subspecies paratuberculosis.
A further experiment concerns MAP 303. In words: radiometric 14CO2 BACTEC 460 growth culture, MAP 303. Type of experiment: cell-based, Mycobacterium avium subspecies paratuberculosis.
The test system of a further experiment is M. avium ATCC 25291. In words: radiometric 14CO2 BACTEC 460 growth culture, M. avium 25291. Type of experiment: cell-based, M. avium subspecies avium.
The subject of a further experiment is M. avium 101. The experiment can be described thus: radiometric 14CO2 BACTEC 460 growth culture, M. avium 101. The experiment is classed as cell-based, M. avium subspecies avium.
Experiment [2] has as its system Bacillus Callmette Guerin (BCG) M. bovis Karlson & Lessel (ATCC 19015). Type of experiment: cell-based. To be noted: 64 μg/ml.

The structures appear in SMILES notation.

As to `O=C(O)c1cccnc1` [Nicotinic acid, nicotinic acid], the “percent change from control cGI (% ΔcGI / % −ΔcGI)” value (“percent change … (% ΔcGI / % −ΔcGI)” below) in experiment [1] (1 μg/ml, first of the two values (two experiments)) is reported as 46%; in experiment [1] (1 μg/ml, second of the two values (two experiments)) it was 71%; in experiment [1] (4 μg/ml, first of the two values (two experiments)), 133%; in experiment [1] (4 μg/ml, second of the two values (two experiments)) it was 181%; in experiment [1] (16 μg/ml, first of the two values (two experiments)), 195%; in experiment [1] (16 μg/ml, second of the two values (two experiments)), 198%. The “percent change … (% ΔcGI / % −ΔcGI)” value in experiment [1] (64 μg/ml, first of the two values (two experiments)) was determined as 197%; in experiment [1] (64 μg/ml, second of the two values (two experiments)) it was 225%; with MAP strain UCF-4 (1 μg/ml), 48%; in the experiment on MAP strain UCF-4 (4 μg/ml), 63%; in the experiment on MAP strain UCF-4 (16 μg/ml) it was 101%; in the experiment on MAP strain UCF-4 (64 μg/ml), 92%. The “percent change … (% ΔcGI / % −ΔcGI)” value in the experiment on MAP strain UCF-4 (64 μg/ml, listed as nicotinic acid) is 92%; in the experiment with MAP ATCC 19698 (1 μg/ml) it was −17%; with MAP ATCC 19698 (4 μg/ml), −4%; in the experiment with MAP ATCC 19698 (16 μg/ml) it was 12%; in the experiment with MAP ATCC 19698 (64 μg/ml) it was 30%; in the experiment with MAP 303 (1 μg/ml) it was −4%. The “percent change … (% ΔcGI / % −ΔcGI)” value was 2% in the experiment on MAP 303 (4 μg/ml); −4% with MAP 303 (16 μg/ml); 22% in the experiment on MAP 303 (64 μg/ml); 98% in the experiment with M. avium ATCC 25291 (1 μg/ml); 170% in the experiment with M. avium ATCC 25291 (4 μg/ml); 167% with M. avium ATCC 25291 (16 μg/ml). Also, the “percent change … (% ΔcGI / % −ΔcGI)” value came to 175% in the experiment on M. avium ATCC 25291 (64 μg/ml); 41% in the experiment on M. avium 101 (1 μg/ml); 47% in the experiment on M. avium 101 (4 μg/ml); 40% with M. avium 101 (16 μg/ml); 56% in the experiment on M. avium 101 (64 μg/ml). The “effect on growth (in words)” value was “far less nicotinic acid induced enhancement” with MAP ATCC 19698 (at the doses tested), “far less nicotinic acid induced enhancement” with MAP 303 (at the doses tested), “enhanced growth” in the experiment on M. avium ATCC 25291 (at the doses tested) and “enhanced growth” with M. avium 101 (at the doses tested).

For the molecule `O=C(O)c1ccccc1O` [salicylic acid, reference compound], the “percent change … (% ΔcGI / % −ΔcGI)” value with MAP 303 (64 μg/ml) is 66%; in the experiment on M. avium ATCC 25291 (64 μg/ml) it was 104%; in experiment [2], 95%.
